Measured values from US12545637B2, “Extrahepatic targeted cationic lipid compound with high efficiency and low toxicity and its composition” (BEIJING YOUCARE KECHUANG PHARMACEUTICAL TECHNOLOGY CO., LTD., priority 2023, dated 2026).

Assays:
293T cells = assay: Fluorescent detection of Fluc-mRNA (cell transfection efficiency of LNP formulations); assay type: cell-based
female BALB/C mice = assay: In vivo imaging in mice of Fluc-mRNA LNP formulations (mRNA expression and duration)
Summary of the method: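 Female BALB/C mice (4-6 weeks, 17-19 g) received LNP carrying […] Fluc-mRNA intramuscularly. At 6h, 24 h, 48h and 7d, fluorescent imaging substrate was given intraperitoneally and after 5 minutes average radiance, as a measure of expressed protein, was imaged on an IVIS Spectrum system.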

[1] = Detection of encapsulation efficiency, drug loading concentration and total RNA concentration (RiboGreen); assay type: physicochemical
Summary of the method: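 LNP samples were diluted in 1×TE to approximately […], then mixed with 1×TE and 0.1% Triton X-100 buffers. After 10 minutes at 37 °C, RiboGreen (1:200) was added and fluorescence read against an mRNA standard, giving encapsulation efficiency, drug loading concentration and total RNA concentration.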

[2] = Particle size and polydispersity index (PDI) of lipid nanoparticles by dynamic light scattering; assay type: physicochemical
Method: The particle size and polydispersity index (PDI) were determined by dynamic light scattering using Malvern laser particle size analyzer.
10 μL of the liposome solution was weighed, diluted to 1 mL with RNase-free deionized water, and added to the sample pool. Each sample was measured in triplicate. The measurement conditions were: […] scattering angle, and 25° C.

[3] = LNP formulation prepared from the cationic lipid

CCCCCCCCC(CCCCCCCC)COC(=O)CCCCCN(CCCO)CCN(CCCO)CCCCCC(=O)OCC(CCCCCCCC)CCCCCCCC [YK-422, di(2-octyldecyl) 6,6′-(ethane-1,2-diyl-bis((3-hydroxypropyl)azanediyl))dihexanoate]
RLU value, times that of ALC-0315 (293T cells; ratio vs ALC-0315): 2.94
RLU value, times that of HHMA (293T cells; ratio vs HHMA): 3.09
RLU value, times that of Lipofectamine 3000 (293T cells; ratio vs Lipofectamine 3000): 5.36
RLU value, times that of YK-009 (293T cells; ratio vs YK-009): 1.25
RLU value, times that of YK-405 (293T cells; ratio vs YK-405): 2.01
RLU value, times that of YK-406 (293T cells; ratio vs YK-406): 82.21
RLU value, times that of YK-408 (293T cells; ratio vs YK-408): 4.36
RLU value, times that of YK-409 (293T cells; ratio vs YK-409): 9.60
RLU value, times that of YK-410 (293T cells; ratio vs YK-410): 15.77
cell transfection efficiency, times that of YK-412 (293T cells; ratio vs YK-412): 1.91
cell transfection efficiency, times that of YK-413 (293T cells; ratio vs YK-413): 4.67
cell transfection efficiency, times that of YK-414 (293T cells; ratio vs YK-414): 14.49
cell transfection efficiency, times that of YK-416 (293T cells; ratio vs YK-416): 1.62
cell transfection efficiency, times that of YK-419 (293T cells; ratio vs YK-419): 2.03
cell transfection efficiency, times that of YK-420 (293T cells; ratio vs YK-420): 1.60
cell transfection efficiency, times that of YK-421 (293T cells; ratio vs YK-421): 13.79
average radiation intensity, times that of ALC-0315 (female BALB/C mice; 6 h): 1.58
average radiation intensity, times that of HHMA (female BALB/C mice; 6 h): 2.01
average radiation intensity, times that of SM-102 (female BALB/C mice; 6 h): 1.92
average radiation intensity, times that of compound 21 (female BALB/C mice; 6 h): 2.21
average radiation intensity, times that of compound 23 (female BALB/C mice; 6 h): 2.29
expression amount in mice, times that of YK-415 (female BALB/C mice; 6 h): 11.28
expression amount in mice, times that of YK-417 (female BALB/C mice; 6 h): 21.98
mRNA expression in mice, times that of YK-411 (female BALB/C mice; 6 h): 227.25
average radiation intensity, times that of ALC-0315 (female BALB/C mice; 24 h): 3.73
average radiation intensity, times that of HHMA (female BALB/C mice; 24 h): 5.90
average radiation intensity, times that of SM-102 (female BALB/C mice; 24 h): 5.74
average radiation intensity, times that of compound 21 (female BALB/C mice; 24 h): 6.38
average radiation intensity, times that of compound 23 (female BALB/C mice; 24 h): 7.01
expression amount in mice, times that of YK-415 (female BALB/C mice; 24 h): 10.98
expression amount in mice, times that of YK-417 (female BALB/C mice; 24 h): 35.43
mRNA expression in mice, times that of YK-411 (female BALB/C mice; 24 h): 350.21
average radiation intensity, times that of ALC-0315 (female BALB/C mice; 48 h): 6.76
average radiation intensity, times that of HHMA (female BALB/C mice; 48 h): 8.14
average radiation intensity, times that of SM-102 (female BALB/C mice; 48 h): 8.26
average radiation intensity, times that of compound 21 (female BALB/C mice; 48 h): 8.60
average radiation intensity, times that of compound 23 (female BALB/C mice; 48 h): 8.24
expression amount in mice, times that of YK-415 (female BALB/C mice; 48 h): 17.19
expression amount in mice, times that of YK-417 (female BALB/C mice; 48 h): 38.52
mRNA expression in mice, times that of YK-411 (female BALB/C mice; 48 h): 278.33
average radiation intensity, times that of ALC-0315 (female BALB/C mice; 7 d): 1.35
average radiation intensity, times that of HHMA (female BALB/C mice; 7 d): 1.59
average radiation intensity, times that of SM-102 (female BALB/C mice; 7 d): 1.41
average radiation intensity, times that of compound 21 (female BALB/C mice; 7 d): 1.49
average radiation intensity, times that of compound 23 (female BALB/C mice; 7 d): 1.55
expression amount in mice, times that of YK-415 (female BALB/C mice; 7 d): 2.34
expression amount in mice, times that of YK-417 (female BALB/C mice; 7 d): 4.15
mRNA expression in mice, times that of YK-411 (female BALB/C mice; 7 d): 19.74
average radiation intensity, 6 h (female BALB/C mice; Fluc-mRNA LNP intramuscular, 6 h after administration): 1329410
average radiation intensity, 24 h (female BALB/C mice; Fluc-mRNA LNP intramuscular, 24 h after administration): 708120
average radiation intensity, 48 h (female BALB/C mice; Fluc-mRNA LNP intramuscular, 48 h after administration): 271372
average radiation intensity, 7 d (female BALB/C mice; Fluc-mRNA LNP intramuscular, 7 d after administration): 9476
Drug loading concentration [1, 3]: 45.05 µg/mL
Encapsulation efficiency [1, 3]: 92.4%
Total RNA concentration [1, 3]: 45.76 µg/mL
encapsulation efficiency higher than ALC-0315 ([1]; difference vs ALC-0315): 29.1%
encapsulation efficiency higher than HIMA ([1]; difference vs HIMA (HHMA)): 32.2%
encapsulation efficiency higher than SM-102 ([1]; difference vs SM-102): 29.5%
encapsulation efficiency higher than YK-009 ([1]; difference vs YK-009): 29.0%
encapsulation efficiency higher than compound 21 ([1]; difference vs compound 21): 34.4%
encapsulation efficiency higher than compound 23 ([1]; difference vs compound 23): 36.2%
drug loading concentration, times that of ALC-0315 ([1]; ratio vs ALC-0315): 1.68
total RNA concentration, times that of ALC-0315 ([1]; ratio vs ALC-0315): 1.21
drug loading concentration, times that of HIMA ([1]; ratio vs HIMA (HHMA)): 1.38
total RNA concentration, times that of HIMA ([1]; ratio vs HIMA (HHMA)): 1.26
drug loading concentration, times that of SM-102 ([1]; ratio vs SM-102): 1.70
total RNA concentration, times that of SM-102 ([1]; ratio vs SM-102): 1.27
drug loading concentration, times that of YK-009 ([1]; ratio vs YK-009): 1.64
total RNA concentration, times that of YK-009 ([1]; ratio vs YK-009): 1.19
drug loading concentration, times that of compound 21 ([1]; ratio vs compound 21): 2.05
total RNA concentration, times that of compound 21 ([1]; ratio vs compound 21): 1.58
drug loading concentration, times that of compound 23 ([1]; ratio vs compound 23): 2.25
total RNA concentration, times that of compound 23 ([1]; ratio vs compound 23): 1.47
PDI ([2]; LNP formulation of the cationic lipid, 25° C.): 13.9%
Particle size ([2]; LNP formulation of the cationic lipid/DSPC/cholesterol/DMG-PEG2000 49:10:39.5:1.5, 25° C.): 146 nm
